Results from patent US8945825B2, “Homogeneous activity test for determining enzymatic reactions” (Siemens Healthcare Diagnostics Products GmbH, priority 2010, dated 2015).

How the values were obtained:
tc-FSAP = target: T1, tc-FSAP (Homo sapiens, UniProt Q14520); test: tc-FSAP inhibition assay (LOCI signal, peptide substrate IV); format: biochemical; conditions: for signal: measured value after 15 minutes
T1 construct: directed against the light chain of FSAP; Two-chain FSAP (tc-FSAP) was prepared, as described by Kannemeier et al; made in house
Procedure: The kinetics of enzyme-inhibitor interaction was investigated by measuring enzyme activity as a function of the amount of inhibitor. In the tc-FSAP inhibition assays, constant amounts of enzyme (tc-FSAP, μg/mL) were preincubated with variable inhibitor concentrations (aprotinin from bovine lung, Fluka), to enable formation of the enzyme-inhibitor complex. Another assay was carried out without preincubation. The remaining protease activity was determined after adding the peptide substrate, as described in example 1.
120 μL test buffer pH 6.3, 10 μL anti-FSAP Chemibeads (200 μg/mL in test buffer), 10 μL purified tc-FSAP (10 μg/mL) and 10 μL test buffer with 0, 4.7 and 47.2 U/mL aprotinin were mixed in DIMENSION VISTA® LOCI® reaction cuvettes. Addition of 10 μL of biotinylated peptide substrate IV in test buffer and 10 μL Sensibeads (400 μg/mL in test buffer) took place without preincubation or after 10 minutes of preincubation at 37° C. The resultant LOCI® signal was measured kinetically, over a period of 15 minutes at 37° C., in a commercially available DIMENSION VISTA® LOCI® measuring unit (Siemens Healthcare Diagnostics Products GmbH) with 200 ms illumination at 680 nm and 1000 ms measuring time at 612 nm.
Another inhibitor used was a monoclonal antibody that inhibits FSAP activity (Siemens Healthcare Diagnostics Products GmbH, MAk No. 1102/570), which is directed against the light chain of FSAP and is formed by the hybridoma cell line DSM ACC2533 (see EP-A2-1334983), similarly to the assay with aprotinin.

FSAP in plasma = target: T2, FSAP in plasma (Homo sapiens, UniProt Q14520); test: Activation of FSAP in citrate plasma with dextran sulfate as cofactor, LOCI signal; format: biochemical; conditions: Test buffer with DXS 20 μg/mL
T2 construct: from tissue; host or cells: citrate plasma
Procedure: Activation in the presence of dextran sulfate leads to a different signal height and signal dynamics versus the same sample, with the same FSAP concentration, but without activation by dextran sulfate (Table 4 and FIG. 2). The signal height produced by activation of the FSAP roughly corresponds to the signal of a purified tc-FSAP of equal concentration of 12 μg/mL with an enzyme activity of 1 PEU/mL (not shown).

T1 sequence (Q14520 314-560 limits assumed): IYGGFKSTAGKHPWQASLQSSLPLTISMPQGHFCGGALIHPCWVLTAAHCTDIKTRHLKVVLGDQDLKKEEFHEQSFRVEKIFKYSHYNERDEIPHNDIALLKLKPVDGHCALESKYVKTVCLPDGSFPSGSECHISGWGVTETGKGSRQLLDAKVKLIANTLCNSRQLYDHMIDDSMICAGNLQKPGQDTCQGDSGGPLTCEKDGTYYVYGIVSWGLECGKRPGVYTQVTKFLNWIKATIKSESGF
T1 sequence (Q14520 24-313 partner limits assumed): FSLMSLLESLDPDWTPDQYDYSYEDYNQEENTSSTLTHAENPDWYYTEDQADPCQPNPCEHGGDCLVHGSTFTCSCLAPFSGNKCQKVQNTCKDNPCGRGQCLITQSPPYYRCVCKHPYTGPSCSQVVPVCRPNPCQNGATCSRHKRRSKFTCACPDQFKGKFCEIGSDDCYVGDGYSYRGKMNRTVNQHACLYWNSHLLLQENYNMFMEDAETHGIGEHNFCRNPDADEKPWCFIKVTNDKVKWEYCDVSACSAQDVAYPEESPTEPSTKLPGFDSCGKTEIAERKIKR
T2 sequence (Q14520 24-313): as the sequence (Q14520 24-313 partner limits assumed) above
T2 sequence (Q14520 314-560): as the sequence (Q14520 314-560 limits assumed) above

signal (tc-FSAP; Aprotinin 4.7 U/mL, with 10 min preincubation) [kcounts]	signal (tc-FSAP; Aprotinin 4.7 U/mL, without preincubation) [kcounts]	signal (tc-FSAP; Aprotinin 47.3 U/mL, with 10 min preincubation) [kcounts]	signal (tc-FSAP; Aprotinin 47.3 U/mL, without preincubation) [kcounts]	Effect on LOCI signal of tc-FSAP (in words) (tc-FSAP; mainly after preincubation with tc-FSAP)	signal (FSAP in plasma; MW ≧ 500 kDa, peptide 10 μg/mL, incubation time 5 at +37° C.) [kcounts]	signal (FSAP in plasma; MW ≧ 500 kDa, peptide 10 μg/mL, incubation time 10 at +37° C.) [kcounts]	signal (FSAP in plasma; MW ≧ 500 kDa, peptide 10 μg/mL, incubation time 15 at +37° C.) [kcounts]	signal (FSAP in plasma; peptide 0 μg/mL, incubation time 5 at +37° C.) [kcounts]	signal (FSAP in plasma; peptide 0 μg/mL, incubation time 10 at +37° C.) [kcounts]	signal (FSAP in plasma; peptide 0 μg/mL, incubation time 15 at +37° C.) [kcounts]	Substance
15.03	71.18	11.77	67.8	strong signal-reducing effect	–	–	–	–	–	–	aprotinin
–	–	–	–	–	50.303	106.500	118.096	1.166	1.220	1.204	dextran sulfate sodium salt [DXS]
